Measurements as given in US11999737B2, “Kinase inhibitors and related methods of use” (Duke University, priority 2014, dated 2024).
“Also recorded” adds a separate entry of the source.

Experiments:
LC20 phosphorylation = test system: LC20 phosphorylation; design: species or system rat
[1] = test system: MYPT1 Thr696 phosphorylation; assay: Western blot of MYPT1 Thr696 phosphorylation in Ca2+-sensitized rabbit ileum; settings: HS38 50 μM
Experimental: To examine the effect of ZIPK inhibition on sensitized force, muscle strips were stimulated with an intermediate calcium concentration solution (pCa 6.5). Once force reached a plateau, strips were Ca^2+-sensitized by the addition of the agonist carbachol (5 μM). Up to 2 μM of GTP was added together with the sensitizing agonist to compensate for possible loss of GTP during permeabilization. At the plateau of Ca-sensitized force (5-10 min upon stimulation), the ZIPK inhibitor, HS38 (50 μM) or diluent (0.1% DMSO) was added and the force relaxation time course was recorded. Tissue samples were frozen 20 min after the addition of HS38 for biochemical assays of RLC20 and MYPT1 phosphorylation.
MYPT1 and RLC20 phosphorylation: To examine the phosphorylation of MYPT1 and RLC20, rabbit ileum SM strips were treated as described above and previously reported. (Gong et al. (1995), J. Physiol.-London 486, 113-122; Kitazawa et al. (1989) J. Biol. Chem. 264, 5339-5342; Kobayashi et al. (1991) Am. J. Physiol. 260, C364-C370), Following the stimulation protocols, muscle strips were immediately frozen by immersion in −80° C. acetone with trichloroacetic acid (10% w/v) and stored at −80° C. […] Phosphorylation of MYPT1 Thr696 and of RLC20 was determined by SDS-PAGE and Western blotting. […]

ROK2 = ROK2 (Rattus norvegicus, UniProt Q62868); assay: 33P-ATP filter-binding kinase assay
LC20 monophosphorylation = test system: LC20 monophosphorylation; design: species or system rat
[2] = test system: rat caudal arterial smooth muscle (RTA); assay: Calyculin A-induced contraction of rat caudal arterial smooth muscle (RTA) strips
Experimental: Tissue preparation and Force Measurement for RTA smooth muscle: Caudal arteries were removed from male Sprague-Dawley rats (300-350 g) that had been anesthetized and euthanized according to protocols approved by the University of Calgary Animal Care and Use Committee. The arteries were cleaned of excess adventitia, de-endothelialized and cut into helical strips (1.5 mm×6 mm). Muscle strips were mounted on a Grass isometric force transducer (FT03C), and force was recorded. Intact tissues were treated with calyculin A (CLa, […]). At selected sampling points, muscle strips were flash-frozen in 10% (w/v) TCA, 10 mM DTT in acetone followed by 3×10 s washes in 10 mM DTT in acetone. Tissues were then lyophilized overnight. Protein was extracted from each arterial strip by incubation (16 h, 5° C.) in 0.5 mL of SDS-PAGE sample buffer.
In this case, calyculin A (CLa, 10^−7M)-induced contractions were used since inhibition of myosin phosphatase activity in RTA unmasks endogenous Ca^2+-independent LC20 kinase activities, including ZIPK. Experiments were performed with addition of inhibitors for ROK (HA-1152, 10^−6 M; GSK429286A, 10^−5M) in combination with HS-38. Combining ROK and ZIPK inhibitors had no effect on Ca^2+-sensitization (force generation or downstream ZIPK target phosphorylation).
Data were collected for RTA smooth muscle contraction in the presence and absence of HS-38, including measurements of contractile force development, and the concentration dependency of these effects. […] The t1/2 max value is defined as the time required for contractile force to reach 50% of maximal tone.
The latency period, i.e. the time from addition of calyculin A to the onset of contraction, and the half-time from the initiation of contraction to the plateau of the contractile response, were determined, in addition to the t1/2 values (the half-time from addition of calyculin A to the plateau of the contractile response) determined previously, in the absence and presence of HS-38. […] On the other hand, the steady-state level of force induced by calyculin A was unaffected by ZIPK inhibition. The results support the ability of HS38 to suppress the initiation and rate of contractile tone without altering the total force potential of the muscle.

[3] = test system: isolated PCA vessels (posterior cerebral artery of the rat); assay: Dilation of isolated PCA vessels previously constricted with 5HT
From the text: FIG. 47 is a graph of HS-38 concentration versus percent dilation of isolated PCA vessels (posterior cerebral artery of the rat) previously constricted with 5HT.
ZIPK expression differences within different vascular beds may provide distinct pharmacology.

[4] = test system: human cerebral arterioles; assay: Pressure myography of isolated human cerebral arterioles, myogenic tone; settings: HS-38 10 μM, ex vivo
From the text: A human cerebral artery (CA) was harvested during a tumour removal. Cerebral tissue was obtained from a person with metastatic adenocarcinoma from lung. Surface vessels of the anterior cerebral artery off the midline over the left anterior frontal lobe were dissected for analysis. […] Pressure-induced changes in arteriolar diameter (A) as well as diameter-pressure relationships (B) and arterial constriction (C) are shown. Data are from n=1 vessel. The passive diameter at 120 mmHg was ˜290 μm. Vessels of similar diameter were isolated, proteins were extracted with SDS-PAGE buffer and immunoblotted (D) for ZIPK and α-actin as a loading control.
A human cerebral artery (CA) was harvested during a tumor removal. Cerebral tissue was obtained from a person with metastatic adenocarcinoma from lung. Surface vessels of the anterior cerebral artery off the midline over the left anterior frontal lobe were dissected for analysis. […]
Pressure-induced changes in arteriole diameter (A) as well as diameter-pressure relationships (B) and arterial constriction (C) are shown. […] Bands were quantified with a LAS4000 gel analyzer.
Tissues were obtained from patients undergoing resections for treatment for epilepsy or tumors. Surface vessels of ˜200 μm diameter were analyzed by pressure myography and western immunoblotting.

ROK2, sequence (Q62868 2-543): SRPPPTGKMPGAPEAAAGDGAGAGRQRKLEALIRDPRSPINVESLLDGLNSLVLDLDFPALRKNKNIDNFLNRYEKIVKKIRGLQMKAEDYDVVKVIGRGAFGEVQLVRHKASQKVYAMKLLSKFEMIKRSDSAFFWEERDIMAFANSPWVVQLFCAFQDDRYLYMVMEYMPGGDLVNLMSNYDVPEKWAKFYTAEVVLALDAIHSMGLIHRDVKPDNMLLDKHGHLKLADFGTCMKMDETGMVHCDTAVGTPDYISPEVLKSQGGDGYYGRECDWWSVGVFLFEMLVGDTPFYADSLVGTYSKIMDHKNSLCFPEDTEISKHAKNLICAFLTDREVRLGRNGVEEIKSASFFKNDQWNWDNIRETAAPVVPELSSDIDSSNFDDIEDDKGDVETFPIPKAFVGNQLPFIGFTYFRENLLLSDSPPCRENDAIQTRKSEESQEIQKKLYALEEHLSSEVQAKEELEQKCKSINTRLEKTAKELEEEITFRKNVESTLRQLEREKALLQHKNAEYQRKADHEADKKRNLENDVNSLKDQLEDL

CC(Sc1nc2c(cnn2-c2cccc(Cl)c2)c(=O)[nH]1)C(N)=O (centres unmarked) [HS38]
LC20 mono- and diphosphorylation (LC20 phosphorylation): time-dependent attenuations
MYPT1 Thr696 phosphorylation level [1]: significantly reduced
activity against ROK2 (ROK2): completely inactive
activity at 10 µM (ROK2; read-out: % Activity (10 μM HS38)): 91%
levels of LC20 monophosphorylation induced by KCl and Ang II (LC20 monophosphorylation): could attenuate
contractile force during the Ca2+ sensitization process ([2]; calyculin A): concentration-dependent attenuation
t1/2max; time to reach 50% of maximal contractile force ([2]; calyculin A 10^−7 M, increasing concentrations of HS-38): concentration-dependent increases
Latency (s) ([2]; calyculin A with HS-38, n = 28, mean ± SEM): *654.7 ± 60.6 s
% KCl contraction ([2]; steady-state force, calyculin A with HS-38, n = 28, mean ± SEM): **161.7 ± 8.4%
dilation of vessels previously constricted with 5HT [3]: induced dilation
myogenic tone development [4]: appeared to attenuate; also recorded: suppressed
